Data: a melting point compilation (Tetko et al.)

Structure (SMILES)	melting point
Nc1cccc(-c2cncnc2)c1	163 to 166 °C
Cc1ccc(C(=O)NC(=Cc2ccccc2)C(=O)O)cc1	229 to 230 °C
O=C1OC(c2ccccc2)=N/C1=C/c1ccc(-c2ccccc2[N+](=O)[O-])o1	210 °C
Brc1c2ccccc2cc2ccccc12	100 °C
Cc1nc(Cl)ccc1I	32 °C
CN1CCC23c4c5ccc(O)c4OC2C(O)CCC3C1C5 (stereo not given)	157 °C
O=C(CN1CCNCC1)N1CCCC1	75 to 76 °C
O=c1cc(C(F)(F)F)c2cc3c4c(c2o1)CCCN4CCC3	167 to 168 °C
CC(=O)N1CC(c2ccccc2)C=C1c1ccccc1 (stereo not given)	105 °C
Cc1cc2nc(N)sc2cc1C	185 to 189 °C
CC(=O)Oc1ccccc1C(=O)Cl	49 °C
CC1(c2ccc(Oc3ccccc3)cc2)OC(=O)N(Nc2ccccc2)C1=O (stereo not given)	142 °C
CCOP(=S)(OCC)Oc1cnc2ccccc2n1	31.5 °C
Brc1ccc(-c2ccno2)s1	66 to 67 °C
C=CCN=C(NCC=C)c1cc(C(C)(C)C)c(O)c(C(C)(C)C)c1	201 to 202 °C
CCCCCCCC(=O)CCC	4.5 °C
C=CCc1cc(C(C)=O)ccc1O	115 to 118 °C
Cc1ccc(NC(=O)C(F)(F)C(F)(F)C(F)(F)C(F)(F)C(F)(F)C(F)(F)C(F)(F)C(F)(F)F)cc1C	111 °C
CCSc1nnc(NC(=O)C(C(F)(F)F)C(F)(F)F)s1	159 °C
O=C1/C(=C/c2ccccc2O)SC(=S)N1CN1CCOCC1	166 °C
CN(C)c1ccc2cc3ccc(N(C)C)cc3nc2c1	165 °C
COc1cccc(C=C(C)[N+](=O)[O-])c1	45 to 47 °C
C/C(CCc1oc2ccc(C)cc2c1-c1ccc(C)o1)=N/O	103 to 104 °C
Cn1cc(Br)c(CCl)n1	76.5 to 78.5 °C
COC(=O)c1ccc2[nH]cnc2c1	139 to 143 °C

Structure (SMILES)	melting point
Cc1cccc(OCC(O)CNC(C)C)c1 (stereo not given)	76 °C
Fc1ccc2c3c([nH]c2c1)CNCC3	224 °C
S=C1SCN(Cc2ccccc2)CN1Cc1ccccc1	102 °C
CC(=O)Oc1c(-c2ccccc2)[nH]c2cc([N+](=O)[O-])c(/C=C/c3ccccc3)cc12	224 °C
O=Cc1ccc(O)c(OC(F)(F)F)c1	78 °C
Cc1cc(O)c(Cl)cc1Cl	73 °C
CC(C)(C)NCC(O)COc1nsnc1N1CCOCC1 (stereo not given)	202 °C
Nc1ccncc1[N+](=O)[O-]	203 °C
Cc1ccccc1NC(=O)c1cnc(C(C)(C)C)cn1	81 °C
COc1cc(C(=O)Nc2nnc(-c3ccc(Cl)cc3)o2)cc(OC)c1OC	261 to 263 °C
CC(C)(C)OC(=O)N1CCN(c2ccc(C#N)cc2)CC1	124 to 125 °C
O=C(CBr)Oc1ccc([N+](=O)[O-])cc1	86 °C
Cn1ncc(N2CCOCC2)c(Cl)c1=O	131 to 133 °C
O=Cc1ccc(-n2cncn2)cc1	147 to 149 °C
O=[N+]([O-])Nc1ccccc1	47.3 °C
CN1CCC23c4c5ccc(O)c4OC2C(=O)CCC3C1C5 (stereo not given)	266 °C
CCOC(=O)c1c[nH]c(=S)[nH]c1=O	252 °C
CC(C)C1=CC2=C(CC1)C1(C)CCCC(C)(C(=O)O)C1CC2 (stereo not given)	164 °C
CCc1ccc(C(c2ccc(CC)cc2)C(Cl)Cl)cc1	56 °C
c1ccc(-c2ccc(N=C(CNc3ccc(-c4ccccc4)cc3)Nc3ccc(-c4ccccc4)cc3)cc2)cc1	190 °C
CCCCCCCCCCCCCCCCCCCCC1CCCCC1	48.5 °C
Clc1cc2oc3c(Cl)c(Cl)c(Cl)cc3c2cc1Cl	196 °C
NC=S	26.5 °C
O=C(C=Cc1ccccc1)C=Cc1ccccc1	111 °C
N[C@@H](CCl)C(=O)O	156 to 157 °C

Structure (SMILES)	melting point
NNC(=O)Cc1ccccc1	115 to 117 °C
CCC1(N2CCCCC2)C(=O)NC(=O)NC1=O	215 °C
Oc1c(Br)cc(F)cc1Br	55 °C
CCCCCOc1ccc(C(=O)O)cc1	123 to 127 °C
CCC(C)CC(C)(C)C (stereo not given)	-120 °C
CC(=O)CCc1cc2c(cc1N=Nc1ccccc1C(=O)O)CCC(C)N2 (stereo not given)	157 °C
CC(C)n1cc(C#N)c(=O)n(Cc2ccccc2)c1=O	151 to 154 °C
Cc1cc(C)c(CC(=O)c2oc3ccccc3c2NC(=O)c2ccccc2)c(C)c1	198 to 199 °C
CC(CO)CO	-91 °C
BrCCCCCCCBr	41.7 °C
Cc1nc(-c2ccccc2)sc1CO	99 to 102 °C
Cn1c(C(=O)O)cc2occc21	200 °C
CC1c2ccccc2-c2ccccc21	46.5 °C
N#Cc1ccc2cccc(O)c2n1	131 to 136 °C
CC12CCC(O)CC1CC1(OCCO1)C1C2CCC2(C)C1CCC21OCCO1 (stereo not given)	99 to 103 °C
COC(=O)c1cc(Oc2ccc(Cl)cc2Cl)ccc1[N+](=O)[O-]	87 °C
C#CC1(O)C=CC2C3CCC4=CC(=O)CCC4C3CCC21CC (stereo not given)	198 °C
CC(=O)OC1CCC2(C)C(CC(=O)C3C2CCC2(C)C(OC(=O)c4ccccc4)CCC32)C1 (stereo not given)	175 °C
CC(C)(C)OC(=O)N1CCN(c2ccc(CO)cn2)CC1	112 to 115 °C
CCOC(=O)c1c(C)oc(N)c1C(=O)OCC	84 to 85 °C
CC(C)(C(N)=O)n1nc2ccccc2n1	174 °C
COC(=O)CCc1ccc(OC)c(O)c1	78 °C
CC(=O)c1cc2c(cc1C)C(C)(C)C(C)CC2(C)C (stereo not given)	54.5 °C
Brc1cccc(Oc2ccc(Br)c(Br)c2)c1	< 20 °C
OC(c1ccc(F)cc1)(c1cncnc1)c1ccccc1Cl (stereo not given)	126 °C

Continued, values first:

melting point	Structure (SMILES)
57 to 58 °C	CCOC(=O)c1cc(-c2ccco2)nn1C
190 to 195 °C	Cc1cnc(N)c([N+](=O)[O-])c1
233 °C	Cc1c(C)c(O)c(C)c(C)c1O
69 to 72.5 °C	BrCc1cccc(N2CCCC2)n1
58 to 60 °C	Cc1ccc2sc(C(=O)Cl)cc2c1
125 °C	O=C(c1cccs1)c1noc(-c2ccc(Cl)cc2)c1S(=O)(=O)c1ccccc1
96 °C	CC(=O)Oc1ccccc1C(=O)Oc1ccccc1
85 to 88 °C	Cc1oc(-c2ccccc2)cc1C(=O)Cl
68 to 70 °C	O=Cc1cccc(N2CCOCC2)c1
300 °C	O=C(O)C=CC(=O)C=CC(=O)O
-126 °C	C#CCC
62 °C	Cc1ccccc1NC=O
87 to 91 °C	CCOC(=O)c1cn2ccsc2n1
67 to 68 °C	COc1ncccc1N
199 °C	Oc1ccc2ccccc2c1/N=N/c1ccc(/N=N\c2ccccc2)cc1
137 to 143 °C	O=CC(C=O)c1ccc(Cl)cc1
133 °C	CSC(=O)c1cccc2nnsc12
80 °C	CC1(C)OC(=O)C2CCCCC21 (stereo not given)
194 °C	NNC(=O)c1ccc(-c2ccccc2)cc1
205 to 210 °C	CCOC(=O)c1c[nH]c2c(F)cccc2c1=O
111 to 114 °C	COc1ccc2cc(C(C)O)ccc2c1 (racemic)
-53 °C	CCCCCCCCCC(C)CC (stereo not given)
104 °C	CC(C)=CCCC(C)C1=C(O)C(=O)C(C)=CC1=O (stereo not given)
126 °C	COc1ccc2c3c1OC1CC(O)C=CC31CCN(C)C2 (stereo not given)
140 to 142 °C	CCSC(SCC)C(O)C(O)C(O)C(O)CO (stereo not given)
94 to 96 °C	CCOc1ncnc2c1cnn2-c1ccccc1
30 °C	O=S(=O)(Cl)c1ccccc1F
89 to 90 °C	O=Cc1ccc(N2CCCC2)nc1

melting point	Structure (SMILES)
156 to 157 °C	Cc1cc(C)c(CC(=O)c2oc3ccccc3c2NC(=O)Cc2ccccc2)c(C)c1
93 °C	O=Cc1cccc2cccnc12
222 °C	CC(=O)Oc1ccc(N/C=C2\C(=O)C3(C)CCC2C3(C)C)cc1 (stereo not given)
37.5 °C	CC(=O)N(C(C)=O)c1ccccc1
163 °C	OCc1c2ccccc2cc2ccccc12
119 °C	CC1=C(C(=O)O)CCCO1
165 °C	O=C(c1ccccc1)c1noc(-c2ccc([N+](=O)[O-])cc2)c1S(=O)(=O)c1ccccc1
130 °C	CCNc1ccc2ccccc2c1N=Nc1ccc(N=Nc2ccccc2)cc1
167 to 168 °C	COc1ccc(C=NN=Cc2ccc(OC)cc2)cc1
140 °C	O=C(Cc1ccccc1)NC(CO)c1ccccc1 (stereo not given)
81 to 82 °C	O=C=Nc1cccc2nsnc12
78 °C	CCNc1nsc2ccccc12
293 °C	CN[C@@H](Cc1ccc(O)cc1)C(=O)O
-44.6 °C	CCCCCCO
180 °C	COc1ccc(C(=O)O)cc1OCc1ccccc1
180 °C	CC12CCC(/C(=C/N(OC(=O)c3ccc([N+](=O)[O-])cc3)c3ccccc3)C1=O)C2(C)C (stereo not given)
119 °C	CC(=O)OC1CCC2(C)C(CCC3C4CC=C(C=Cc5ccccc5)C4(C)CCC32)C1 (stereo not given)
225 °C	O=C(O)C(Br)C(Br)c1cccc(C(Br)C(Br)C(=O)O)c1 (stereo not given)
68 to 72 °C	C1COCCN2CCOCCOCCN(CCO1)CCOCCOCC2
143 to 149 °C	O=C1c2ccccc2-c2ccc(Br)cc21
11.6 °C	CC1CC(C)CC(O)C1 (stereo not given)
197 to 198 °C	O=C(c1ccc(O)cc1)c1ccc(O)cc1O
56.5 °C	Cc1cc2ccccc2n1C
131 to 133 °C	CC(=O)Nc1cccnc1
177 to 181 °C	COc1ccc(-c2ccc(OC)cc2)cc1
125 °C	O=c1c2ccccc2cc2ccc3ccccc3n12
100 °C	CC(C)c1cc(Cl)nc(N)n1
